The text below walks through data of EP3275434A1, “AN EXTENDED RELEASE ORAL DOSAGE FORM” (SANDOZ AG, priority 2016, dated 2018).

A short description of series [1]: blood plasma concentration of veliparib against time, immediate release 400 mg twice a day. Type of series: in vivo. Particulars: 10 x 40 mg twice a day, daily dose 800 mg. The source says:
The term peak plasma concentration is Cmax in blood plasma observed after administration. The term trough plasma concentration is Cmin in blood plasma observed after administration and just prior to the administration of a subsequent dose in a given dosage regimen. The veliparib plasma concentration can be determined according to the approach described in Mostafa et al., Cancer Chemother Pharmacol (2014) 74: 583-591. Pharmacokinetic terms have the typical meaning as recognized in the art and in case of doubt are to be interpreted according to the European Pharmacopoeia Version 8.8.
The present inventors have realized that the In-vivo plasma concentration profile of veliparib when administered as immediate release dosage forms at 400 mg BID, can be such that the blood plasma fluctuations are quite high. […] Thus, undesireably high peak concentrations are obtained in order to keep the trough concentration above a therapeutic threshold. In contrast, the extended release dosage form of the present invention enables the provision of therapeutically effective trough concentrations at all times without attaining such a high peak concentration. Moreover, when the extended release dosage form of the present invention is administered twice daily, even an overall dose reduction can be obtained while at the same time keeping the through concentration above the therapeutic threshold.
In this experiment 10 tablets containing 40 mg veliparib each prepared in accordance with Comparative example 1 are administered twice a day, 12h apart, to meet a daily dose of 800 mg. A plot displaying the pharmacokinetic behaviour of veliparib is obtained by plotting the blood plasma concentration of veliparib against time (Figure 1). […] The Cmax/Cmin ratio for veliparib is almost 7.

For series [2] the following is noted: cited from earlier work.

As for `C[C@]1(c2nc3c(C(N)=O)cccc3[nH]2)CCCN1` [veliparib, 2-((R)-2-Methylpyrrolidin-2-yl)-1H-benzimidazole-4-carboxamide], in series [1], the Cmax/Cmin ratio result is listed as “about 7” and the Cmin entry is given as “around 0.5 µg/ml”. In series [1] (plasma, po, 400 mg), this molecule gave a Cmax of about 3500 ng/mL. In series [2] (immediate release tablet at 2 x 400 mg per day), the side effects reported result was “anemia, fatigue, nausea, pain and cough”. Moreover, the elimination half-life result in series [2] (in vivo) was “about 6 hours”.

The Cmax is the peak of the concentration-time curve.
